Key:
[1] = test system: patients with advanced solid tumors; assay: Phase I dose escalation Arm A: DOC every 21 days plus weekly erlotinib days 2, 9, 16; type: in vivo, human
Excerpt: (§1) One explanation is antagonism due to TKI-induced G1 arrest, reducing cell cycle phase-dependent activity of chemotherapy (see FIG. 1). We hypothesized that pharmacodynamic separation by intermittent delivery of HER1/EGFR TKI with chemotherapy might increase efficacy.
(§2) Erlotinib (TARCEVA™) was obtained from OSI Pharmaceuticals, Inc. Melville, N.Y.). Docetaxel (TAXOTERE®) is manufactured and sold by Aventis Pharmaceuticals Inc.

[2] = test system: patients with advanced solid tumors; assay: Phase I dose escalation Arm B: DOC every 21 days plus erlotinib days 2-16; type: in vivo, human
Excerpt: as §1, §2

NSCLC = conditions: first-line, in combination with standard chemotherapy, NSCLC phase III; cited from earlier work
[3] = test system: advanced, treatment-refractory NSCLC; conditions: monotherapy, phase III; cited from earlier work

| Structure (SMILES) | Arm A MTD, DOC ([1]; IV every 21 days, combined with weekly erlotinib 600 mg) | Arm B MTD, DOC ([2]; IV every 21 days, combined with erlotinib 200 mg day 2-16) | Survival (NSCLC) | Arm A MTD, erlotinib ([1]; weekly (days 2, 9, 16), combined with DOC 70 mg/m^2) | Arm B MTD, erlotinib ([2]; day 2-16, combined with DOC 70 mg/m^2) | Survival [3] |
| --- | --- | --- | --- | --- | --- | --- |
| CC(=O)O[C@@]12CO[C@@H]1C[C@H](O)[C@@]1(C)C(=O)[C@H](O)C3=C(C)[C@@H](OC(=O)[C@H](O)[C@@H](NC(=O)OC(C)(C)C)c4ccccc4)C[C@@](O)([C@@H](OC(=O)c4ccccc4)[C@H]21)C3(C)C [DOC, docetaxel] | 70 mg/m^2 | 70 mg/m^2 |  |  |  |  |
| COc1cc2ncnc(Nc3ccc(F)c(Cl)c3)c2cc1OCCCN1CCOCC1 [gefitinib] |  |  | did not improve survival |  |  |  |
| C#Cc1cccc(Nc2ncnc3cc(OCCOC)c(OCCOC)cc23)c1 [erlotinib, [6,7-bis(2-methoxyethoxy)-4-quinazolin-4-yl]-(3-ethynylphenyl)amine] |  |  | did not improve survival | 600 mg | 200 mg | significantly prolonged survival |

— patent publication US20070099856A1, “Combined treatment with docetaxel and an epidermal growth factor receptor kinase inhibitor using an intermittent dosing regimen” (priority 2005, published 2007)
